Reference: patent publication US5476944A, “Derivatives of cyclic phenolic thioethers” (G. D. Searle & Co., priority 1994, dated 1995)

Tests used:
5-lipoxygenase = biological target: T1, 5-lipoxygenase (Rattus norvegicus, UniProt P12527); experiment: Inhibition of 5-lipoxygenase, in vitro (5-HETE formation, RBL-1 homogenate supernatant); format: biochemical; details: RBL-1 supernatant
T1 construct: The 100,000×g supernatant fraction of Rat Basophilic Leukemia Cell Homogenate (RBL-1); endogenous in cells; host or cells: RBL-1 (rat basophilic leukemia) cells, 100,000xg supernatant of homogenate
T1 sequence (P12527 1-673): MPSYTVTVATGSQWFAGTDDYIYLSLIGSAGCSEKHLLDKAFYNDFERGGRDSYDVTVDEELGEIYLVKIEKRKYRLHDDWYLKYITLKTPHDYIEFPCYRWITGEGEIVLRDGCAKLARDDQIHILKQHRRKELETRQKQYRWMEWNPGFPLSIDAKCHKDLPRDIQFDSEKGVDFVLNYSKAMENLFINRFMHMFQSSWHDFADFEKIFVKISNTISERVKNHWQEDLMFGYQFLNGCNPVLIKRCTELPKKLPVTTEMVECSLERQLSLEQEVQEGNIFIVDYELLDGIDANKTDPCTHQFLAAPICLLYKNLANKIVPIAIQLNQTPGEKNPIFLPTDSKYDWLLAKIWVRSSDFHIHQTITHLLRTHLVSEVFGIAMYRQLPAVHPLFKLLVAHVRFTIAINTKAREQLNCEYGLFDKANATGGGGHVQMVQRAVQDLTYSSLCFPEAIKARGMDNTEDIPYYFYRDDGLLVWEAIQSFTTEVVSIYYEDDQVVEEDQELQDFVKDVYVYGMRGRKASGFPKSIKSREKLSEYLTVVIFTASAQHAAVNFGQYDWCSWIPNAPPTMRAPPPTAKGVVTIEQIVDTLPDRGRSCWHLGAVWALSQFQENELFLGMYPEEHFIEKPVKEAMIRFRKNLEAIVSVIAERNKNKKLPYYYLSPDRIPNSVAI
Procedure: The compounds of the invention are evaluated with respect to 5-lipoxygenaseinhibition according to the following assay procedure.
Inhibition of 5-lipoxygenase, in vitro:
The 100,000×g supernatant fraction of Rat Basophilic Leukemia Cell Homogenate (RBL-1) serves as a 5-lipoxygenase enzyme source. The enzyme is incubated with [1-^4 C)-arachidonic acid and Ca++ in the presence and absence of test compound. The product of 5-lipoxygenase, 5-hydroxyeicosatetraenoic acid (5-HETE), is separated by thin-layer chromatography and measured by radioactivity. A compound inhibiting 5-HETE synthesis by 30% or more is considered active at that concentration.
For comparison the compound of Formula XX, a known 5-lipoxygenase inhibitor described in U.S. Pat. No. 4,755,524 was used: [drawing 29] (±)[2S*-[[3,5-bis(1,1-dimethylethyl)-4-hydroxyphenyl]thio]-1R*-methylpro poxy]acetic acid.

COX-I = biological target: T2, COX-I (Homo sapiens, UniProt P23219); experiment: Human Enzyme Assay, recombinant COX-I (PGE2 ELISA); format: biochemical
T2 construct: made in house; host or cells: SF9 insect cells, recombinant baculovirus (pVL1393); coding fragment from Cayman Chemical
T2 sequence (P23219 24-599): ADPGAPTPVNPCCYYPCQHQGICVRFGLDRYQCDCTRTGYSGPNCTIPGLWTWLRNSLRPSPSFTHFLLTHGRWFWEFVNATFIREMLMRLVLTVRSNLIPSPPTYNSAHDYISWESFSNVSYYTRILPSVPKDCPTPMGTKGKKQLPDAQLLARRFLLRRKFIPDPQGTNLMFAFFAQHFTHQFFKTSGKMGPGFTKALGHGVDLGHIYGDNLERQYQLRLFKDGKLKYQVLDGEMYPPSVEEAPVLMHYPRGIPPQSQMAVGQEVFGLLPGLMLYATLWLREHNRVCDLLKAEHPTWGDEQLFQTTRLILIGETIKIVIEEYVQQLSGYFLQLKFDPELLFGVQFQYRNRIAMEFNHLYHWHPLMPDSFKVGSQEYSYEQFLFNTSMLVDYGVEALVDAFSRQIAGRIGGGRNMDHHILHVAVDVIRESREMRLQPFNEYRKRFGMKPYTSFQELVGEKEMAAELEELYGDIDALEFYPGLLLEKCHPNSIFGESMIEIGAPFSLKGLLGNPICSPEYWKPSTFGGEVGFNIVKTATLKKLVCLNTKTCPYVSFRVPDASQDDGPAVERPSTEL
Procedure: The compounds of the invention are evaluated with respect to COX-I and COX-II activity in vitro using an enzyme based assay according to the following assay procedure.
(a) Preparation of Recombinant COX Baculoviruses
A 2.0 kb fragment containing the coding region for either human or murine COX-I (Caymen Chemical, Ann Arbor, Mich.), or human or murine COX-II (Caymen Chemical, Ann Arbor, Mich.), was cloned into a BamH1 site of the baculovirus transfer vector pVL1393 (Invitrogen, Palo Alto, Calif.) to generate a baculovirus transfer vector. Recombinant baculoviruses were isolated by transfecting 4 μg of baculovirus transfer vector DNA into SF9 cells (2×10e8) (Invitrogen, Palo Alto, Calif.) along with 200 ng of linearized bacium by the phosphate method. See M. D. Summers et al., "A Manual of Methods for Baculovirus Vectors and Insect Cell Culture Procedure," TEXAS AGRICULTURE EXPERIMENTAL STATION BULLETIN, No. 1555 (1987), which is incorporated herein by reference. Recombinant viruses were purified by three rounds of plaque purification, and high titer (10e7-10e8 pfu/ml) stocks of virus were prepared. For large scale production, SF9 insect cells (Invitrogen, Palo Alto, Calif.) were infected in 10 liter fermentors (0.5×10^6 /ml) with the recombinant baculovirus stock, such that the multiplicity of infection was 0.1. After 72 hours, the cells were centrifuged and the cell pellet was homogenized in Tris/Sucrose (50 mM: 25%, pH 8.0) containing 1% CHAPS. The homogenate was centrifuged at 10,000×G for 30 minutes, and the resultant supernatant was stored at -80° C. before being assayed for COX activity.
b. Assay for COX-I and COX-II activity:
COX activity was assayed as PGE2 formed/μg protein/time using an ELISA (Caymen Chemical, Ann Arbor, Mich.) to detect the prostaglandin E2 released. CHAPS-solubilized insect cell membranes containing the appropriate COX enzyme were incubated in a potassium phosphate buffer (50 mM, pH 8.0) containing phenol (0.5 mM), and heme (1 μM) with the addition of arachidonic acid (10 μM). Compounds of the present invention were pre-incubated with the enzyme for 10-20 minutes prior to the addition of the COX-I and COX-II enzyme substrate arachidonic acid (10 μM). Any reaction between the arachidonic acid and the enzyme was stopped after ten minutes at 37° C./room temperature by transferring 40 μl of reaction mix into […] ELISA buffer and 25 μM indomethacin. The PGE2 formed was measured by standard ELISA technology (Cayman Chemical, Ann Arbor, Mich.).
The results for this assay, as well as for the next assay (COX-II Cell Fibroblast Assay) are expressed in terms of COX-I or II activity as an IC50 value (50% inhibitory concentration), as defined as the amount of prostaglandin E2 (PGE2) formed per protein per time in response to the enzyme substrate arachidonic acid.

For `CC(C)(C)c1cc(S[C@H]2CCCC[C@H]2OCC(=O)O)cc(C(C)(C)C)c1` (racemic) [Example 72, (±)cis-2-[[2-[[3,5-bis(1,1-dimethylethyl)phenyl]thio]cyclohexyl]oxy]acetic acid], the IC50 (5-lipoxygenase) was > 100 µM and the IC50 (COX-I) was > 100 µM.
